# Measured values reported in patent US20060008800A1, “Unc-13 in the modulation of neurotransmission and secretion events” (priority 2002, published 2006).
# What was measured:
# [1] = system: hippocampal neurons; test: β-phorbol ester induced potentiation of evoked synaptic currents in autaptic neuron cultures (patch clamp); type: cell-based, mouse; conditions: for β-phorbol ester induced EPSC potentiation (synaptic potentiation): PDBU 100-1000 nM; for EPSC potentiation: PDBU
# Description: (§1) Microisland culture preparation was performed according to Bekkers and Stevens (1991). The extracellular medium contained (mM): NaCl, 167; KCl, 2.4; HEPES, 10; glucose, 10; CaCl2, 4; MgCl2, 4 (340 mOsm, pH 7.3). Solutions were applied and recordings were performed as described in Rosenmund (1995). To examine synaptically activated currents, experiments were performed using recurrent synapses (autapses) or only single autaptic neuroeses on microisland cultures at room temperature (=24° C.). Pipette solutions included (mM): KCl, 120, or K-Gluconate, 125; HEPES, 10; EGTA, 1; MgCl2, 4.6; Na4ATP, 4; Creatinephosphate, 15; creatinephosphokinase 50 U/ml (320 mOsm, pH 7.3). Wild type and Munc13-1 deficient glutamatergic hippocampal neurons were used to study the characteristics of Munc13-1 and Munc13-1 independent synapses. For these purposes, individual neurons grown on microisland beds of glial cells (Bekkers, 1991) were employed. In this autaptic culture system, where isolated nerve cells make multiple synaptic contacts, so called autapses, with their own dendritic trees, spontaneous transmitter release, release of the readily releasable vesicle pool induced by hypertonic solutions, and action potential evoked release arise from the same synapse population and can be measured readily with patch clamp techniques. Autaptic responses were obtained after brief (1-2 ms) somatic depolarization. This induces an unclamped action potential that is followed by a postsynaptic response with a delay of 2-4 ms. Excitatory, glutamatergic and inhibitory, GABAergic synaptic currents were distinguished by their characteristic pharmacological and kinetic properties. Excitatory glutamatergic cells were mainly characterized because the differential equipment of presynaptic terminals formed by the same axon with Munc13 priming factors is not apparent in GABAergic neurons.
# Design of and infection with Semliki Forest Virus was done according to published procedures (Betz, 2001; Ashery, 2000). Cells were measured 22-26 h after infection.
# Routinely, cells from Munc13-1^H567K/Munc13-1^H567K mutants were analyzed 12-20 day after plating and compared to wild type control cells obtained from littermates. In some experiments we employed Munc13-1/Munc13-2 double deficient neurons as model cells to study the characteristics of the Munc13-1^H567K variant in comparison to wild type Munc13-1 following overexpression using the Semliki-Forest-Virus system. In contrast to Munc13-1 deficient glutamatergic hippocampal neurons, which still show measurable glutamate release (10% of wild type levels; Augustin, 1999b), double homozygous Munc13-1/Munc13-2 deletion mutant neurons are characterized by a complete lack of spontaneous and evoked transmitter release but can be rescued by reintroduction of Munc13 proteins. This rescue approach was persued in Munc13-1/Munc13-2 double mutant neurons instead of breeding the Munc13-1^H567K/Munc 3-1^H567K mutation into the Munc13-2 deletion mutant background because it was much faster and allowed the direct comparison of additional mutant (Betz, 2001) and wild type Munc13-1 variants in the same cultures. Autaptic responses were obtained after brief (1-2 ms) somatic depolarization. This induces an unclamped action potential that is followed by a postsynaptic response with a delay of 2-4 ms. Excitatory, glutamatergic synaptic currents were identified by their characteristic pharmacological and kinetic properties.
# [2] = system: hippocampal neurons; test: Effect of PDBU on mEPSC frequency in autaptic neurons; type: cell-based, mouse; conditions: 1 μM PDBU
# Description: as §1, with “For these purposes, individual neurons grown on microisland beds of glial cells (Bekkers, 1991) were employed.” left out, “Autaptic responses were obtained after brief (1-2 ms) somatic depolarization. This induces an unclamped action potential that is followed by a postsynaptic response with a delay of 2-4 ms. Excitatory, glutamatergic and inhibitory, GABAergic synaptic currents were distinguished by their characteristic pharmacological and kinetic properties. Excitatory glutamatergic cells were mainly characterized because the differential equipment of presynaptic terminals formed by the same axon with Munc13 priming factors is not apparent in GABAergic neurons.” left out
# Routinely, cells from Munc13-1^H567K/Munc13-1^H567K mutants were analyzed 12-20 day after plating and compared to wild type control cells obtained from littermates. […]
# [3] = system: PKCs; type: cell-based, mouse
# [4] = system: hippocampal neurons; test: Readily releasable vesicle pool size by hypertonic sucrose application; type: cell-based, mouse; conditions: in response to PDBU
# Description: Microisland culture preparation was performed according to Bekkers and Stevens (1991). The extracellular medium contained (mM): NaCl, 167; KCl, 2.4; HEPES, 10; glucose, 10; CaCl2, 4; MgCl2, 4 (340 mOsm, pH 7.3). Solutions were applied and recordings were performed as described in Rosenmund (1995). To examine synaptically activated currents, experiments were performed using recurrent synapses (autapses) or only single autaptic neuroeses on microisland cultures at room temperature (=24° C.). Pipette solutions included (mM): KCl, 120, or K-Gluconate, 125; HEPES, 10; EGTA, 1; MgCl2, 4.6; Na4ATP, 4; Creatinephosphate, 15; creatinephosphokinase 50 U/ml (320 mOsm, pH 7.3). […] In this autaptic culture system, where isolated nerve cells make multiple synaptic contacts, so called autapses, with their own dendritic trees, spontaneous transmitter release, release of the readily releasable vesicle pool induced by hypertonic solutions, and action potential evoked release arise from the same synapse population and can be measured readily with patch clamp techniques. […]
# Synaptic depression in wild type neurons has been interpreted as depletion of the readily releasable pool of vesicles because pool sizes and synaptic responses are reduced in parallel during high frequency stimulation. […]
# [5] = system: Munc13-1 deficient hippocampal neurons; test: EPSC augmentation following high frequency action potential trains in Munc13-1 deficient, Munc13-2 dependent neurons; type: cell-based, mouse; conditions: 1 μM PDBU; Munc13-2 dependent cells
# [6] = system: NMDA receptors; conditions: cited from earlier work
# [7] = system: NMDA receptors; test: Use dependent block of synaptic NMDA EPSCs by MK-801; type: cell-based, mouse; conditions: 5 μM; 120 evoked NMDA EPSCs; Munc13-1 deficient neurons
# [8] = 1 μM PDBU, Munc13-1^H567K/Munc13-1^H567K neurons
# [9] = Munc13-1 dominated wild type synapses
# [10] = after 1 μM PDBU, wildtype neurons
smiles,measurement,setting,value
CCCC(=O)O[C@@H]1[C@@H](C)[C@@]2(O)[C@@H](C=C(CO)C[C@]3(O)C(=O)C(C)=C[C@@H]23)[C@@H]2C(C)(C)[C@]12OC(=O)CCC [PDBU],β-PE induced increase in evoked EPSCs,"[1]; 1 μM PDBU alone, wild type neurons (GÖ 6983 experiment)",160±9 % of baseline values
same,increase of evoked EPSC amplitudes over baseline value,"[1]; 1 μM PDBU for 1 min, wild type neurons, before bisindolylmaleimide I",90±19%
same,evoked EPSC amplitudes,"[1]; 1 μM PDBU for one minute, wildtype neurons",191±17 % of baseline values
same,evoked EPSCs,"[1]; 1 μM PDBU, Munc13-1/Munc13-2 double deficient cells overexpressing Munc13-1^H567K",108±5 % of control levels
same,evoked EPSCs,"[1]; 1 μM PDBU, Munc13-1/Munc13-2 double deficient neurons overexpressing wild type Munc13-1",246±22 % of control levels
same,evoked EPSC amplitudes,[1]; [8],131±7 % of baseline values
same,time constant of increase in evoked EPSC amplitudes,[1]; [8],16 s
same,time constant of enhancement of evoked EPSC amplitudes,"[1]; 1 μM PDBU, wildtype neurons",8 s
same,phorbol ester induced potentiation of evoked responses,"[1]; PDBU 1 μM, rescue with C1-DAG binding mutant ubMunc13-2(H491K)",1.04±0.03
same,phorbol ester induced potentiation of evoked responses,"[1]; PDBU 1 μM, rescue with Calmodulin binding deficient mutant ubMunc13-2(W387R)",2.9±0.4 fold
same,β-phorbol ester induced EPSC potentiation (synaptic potentiation),"[1]; Munc13-1 deficient, Munc13-2 dependent synapses",570±118%
same,β-phorbol ester induced EPSC potentiation (synaptic potentiation),[1]; [9],199±25%
same,phorbol ester induced potentiation of evoked responses,"[1]; PDBU at 1 μM for 1 minute, double deficient neurons rescued with wildtype ubMunc13-2",3.9±1.1 fold
same,EPSC potentiation,[1]; Munc13-1/Munc13-2 double deficient neurons rescued with Munc13-1,247±22%
same,EPSC potentiation,[1]; Munc13-1/Munc13-2 double deficient neurons rescued with ubMunc13-2,510±83%
same,time constant of return to baseline after removal,[1]; [10],27 s
same,time for synaptic amplitude to return to baseline after removal,[1]; [10],3 to 4 min
same,β-Phorbol ester induced potentiation of IPSCs,"[1]; compared with EPSCs, wild type and Munc13-1 deficient neurons",much less pronounced
same,phorbol ester response,[1]; rescue with ubMunc13-2 deletion construct lacking the first 400 amino acids,4.5±1.3 fold increase
same,mEPSC frequency,[2]; Munc13-1^H567K/Munc13-1^H567K cells,127±16 % of control levels
same,mEPSC frequency,[2]; wildtype neurons,239±34 % of control levels
same,phosphorylation of Munc13-1,[3],"weakly phosphorylated in a constitutive, β-PE independent manner"
same,phosphorylation of SNAP-25 and GAP-43,[3],strongly phosphorylated
same,increase of readily releasable vesicle pool,[4]; [9],11±5%
same,increase of readily releasable vesicle pool,[4]; Munc13-2 dependent synapses,30±15%
same,additivity of β-phorbol ester induced potentiation and train induced augmentation,[5],not additive
C[C@]12N[C@H](Cc3ccccc31)c1ccccc12 [MK-801],synaptic NMDA receptors activated and blocked during synaptic activity,[6]; Munc13-1 deficient cells,20%
same,cellular NMDA receptors activated and blocked during synaptic activity,[6]; wild type cells,75%
same,reduction of the NMDA EPSC component,[7],more than 90%
